In brackets after ≈: the same amount, converted by molar mass. Several values for one entry are separate records, joined by “and”; a condition that tells them apart may be missing. Equal entries are not always repeated. Where two headings read alike, the source gives them in different places.
Legend:
M.tb Erdman = experiment: Broth microdilution MIC with Alamar blue endpoint (MABA) / OD600; assay type: cell-based, Mycobacterium tuberculosis
[1] = from drugbank.ca; cited from earlier work
M.tb H37Rv = experiment: Broth microdilution MIC with Alamar blue endpoint (MABA) / OD600; assay type: cell-based, Mycobacterium tuberculosis
[2] = system: African green monkey kidney (Vero; ATCC # CCL81) cells; experiment: In vitro cytotoxicity (PrestoBlue cell viability), Vero; assay type: cell-based; settings: Chlorocebus sabaeus, Vero, 72 h, read-out: Cell viability IC50, VERO
MRSA ATCC 43300 = experiment: MIC against methicillin resistant Staphylococcus aureus (MRSA); settings: read-out: MRSA MIC, ATCC 43300
M. chelonae = experiment: MIC in nontuberculosis mycobacteria (microbroth dilution, resazurin); assay type: cell-based, Mycobacterium chelonae; settings: Mycobacteroides chelonae
M. kansasii = experiment: as above; assay type: cell-based; settings: Mycobacterium kansasii
[3] = Liposome loading / encapsulation efficiency (General protocol); settings: for maximum drug load: HSPC:Chol 3:2, 0.5 mol% PEG-DSG (Example 14)
[4] = system: M. Tuberculosis Erdman or H37Rv vs VERO or HepG2 cells; experiment: Selectivity Index (mammalian cell IC50 / bacterial MIC); set-up: species or system Mycobacterium tuberculosis
[5] = In vitro burst release of liposomal drug in plasma, human; settings: mouse or human plasma, 20 min 37° C., 0.5 M AS liposomes, 40-65 mol% Chol (FIG. 5A, 5B)
Procedure: The plasma was thawed, if necessary, adjusted to pH 7.4 with 1 N HCl, and sequentially filtered through glass microfiber filters (GF/C), 1 µm polyethersulfone (PES), and 0.22 µm PES filters. Plasma (80 µl) was mixed with liposomal drug formulations (20 µl) in a 0.5 ml Eppendorf tube. The mixture was subsequently incubated for 20 min at 37° C. and then put into chilled water.
Incubation time was 20 min.

[6] = Aqueous solubility (visually clear solutions); assay type: physicochemical
Procedure: Working stocks of the compounds were prepared as follows: to an aliquot of a compound (free base) in a powder form 1-1.5 equivalents of HCl in the form of 1 N aqueous solution was added, and the mixture was vortexed until homogeneity. To the resulting cake or syrup, water was added typically to the final 10 mg/ml, and complete dissolution was observed. In some instances, 0.95 equivalents of HCl were added to the free base form of the drug, and 20 mg/ml stock solution was prepared.
Aqueous solubility of the compounds of the present disclosure is illustrated by the following observations of obtaining visually clear solutions: […]

M.avium = experiment: MIC in nontuberculosis mycobacteria (microbroth dilution, resazurin); assay type: cell-based, Mycobacterium avium; settings: for MIC: Mycobacterium avium
MRSA 880 NR-49120 = experiment: MIC against methicillin resistant Staphylococcus aureus (MRSA); settings: read-out: MRSA MIC, 880 NR-49120
M. abscessus = experiment: MIC in nontuberculosis mycobacteria (microbroth dilution, resazurin); assay type: cell-based, Mycobacterium abscessus; settings: Mycobacteroides abscessus
[7] = system: human hepatocyte/liver (HepG2; ATCC #HB8065) cells; experiment: In vitro cytotoxicity (PrestoBlue cell viability), HepG2; assay type: cell-based; settings: Homo sapiens, HepG2, 72 h, read-out: Cell viability IC50, HepG2
MRSA ATCC BAA-1556 [8] = experiment: MIC against methicillin resistant Staphylococcus aureus (MRSA)
M. massiliense = experiment: MIC in nontuberculosis mycobacteria (microbroth dilution, resazurin); assay type: cell-based, Mycobacterium massiliense
[9] = system: mitochondrial protein synthesis (COX-1/SDH-A ratio) in H9C2 rat heart myoblast cells; experiment: Mitochondrial protein synthesis inhibition (MitoBiogenesis in-cell ELISA, COX-1/SDH-A); assay type: cell-based; settings: 120 h, five days, read-out: MPS IC50
MRSA ATCC BAA-1556 [10] = settings: cited from earlier work
[11] = Mycobacterium tuberculosis, ERDMAN; read-out: Mycobacterium tuberculosis MIC, Erdman
[12] = Mycobacterium tuberculosis, H37RV; read-out: Mycobacterium tuberculosis MIC, H37Rv
[13] = M. kansasii strain 662, read-out: MIC
[14] = M. avium sbsp. avium strain 2285 R, read-out: MIC
[15] = read-out: MRSA MIC, ATCC BAA-1556

Question: With `CC(=O)NC[C@H]1CN(c2ccc(N3CCSCC3)c(F)c2)C(=O)O1` [Sutezolid, reference compound] as the molecule, how does the MIC (M.tb Erdman; [11]) read?
Answer: 0.5 mg/L (≈ 1.41 µM)

Question: And the known aqueous solubility [1]?
Answer: 0.237 mg/mL

Question: And the MIC (M.tb H37Rv; [12])?
Answer: 0.5 mg/L (≈ 1.41 µM)

Question: For `CN(C)CCn1nnc(-c2ccc(-c3ccc(N4C[C@H](CN)OC4=O)cc3F)cn2)n1.Cl` [AKG-28], which IC50 [2] is on record?
Answer: 83 mg/L

Question: And the MIC (MRSA ATCC 43300)?
Answer: > 50 mg/L

Question: And the MIC (M. chelonae; M. chelonae strain 49)?
Answer: 0.06 mg/L

Question: And the MIC (M. chelonae; M. chelonae strain 69)?
Answer: 0.5 mg/L

Question: And the MIC (M. chelonae; M. chelonae strain 35752)?
Answer: 0.125 mg/L

Question: And the MIC (M. kansasii)?
Answer: 0.125 mg/L

Question: And the MIC (M. kansasii; [13])?
Answer: > 32 mg/L

Question: What about the “fold more potent than linezolid in killing M. Tuberculosis in vitro” value (M.tb Erdman; Erdmann strain) of the same molecule?
Answer: 33 fold

Question: And the MIC (M.tb Erdman; Mycobacterium tuberculosis, ERDMAN, read-out: Mycobacterium tuberculosis MIC, Erdman)?
Answer: 0.03 mg/L

Question: And the maximum drug load ([3]; 0.5 M AS)?
Answer: 404-424 g/mol PhL

Question: What about the loading efficiency ([3]; 0.5 M AS, at drug loads of 302 (AKG-28) and 387-764 (AKG-38) g/mol PhL) of the same molecule?
Answer: quantitative loading

Question: What about the maximum drug load ([3]; 1 N TEA-SOS) of the same molecule?
Answer: 315-328 g/mol PhL

Question: What about the maximum loading efficiency ([3]; 1 N TEA-SOS, at drug load 250 (AKG-28) and 400-777 (AKG-38) g/mol PhL) of the same molecule?
Answer: 83.5%

Question: What about the “liposome aggregation during drug loading” value ([3]; 30 mol% cholesterol, 1 N TEA-SOS, AKG-28: 5 mol% PEG-DSG or PEG-DSPE, AKG-38: 5 mol% PEG-DSPE) of the same molecule?
Answer: irreversibly aggregated during the drug loading

Question: What about the “loading efficiency (from unencapsulated drug in pre-concentration diafiltrate)” value ([3]; scaled-up lots, HSPC:Chol:PEG-DSPE 45:55:2.25, 0.5 M AS, DL 250 (AKG-28) or 450 (AKG-38) g/mol) of the same molecule?
Answer: 99.1% and 99.3%

Question: What about the “Selectivity Index (SI) Erd/HepG2” value [4] of the same molecule?
Answer: 446.7

Question: What about the “Selectivity Index (SI) Erd/VERO” value [4] of the same molecule?
Answer: 2766.7

Question: What about the “burst release phenomenon in plasma in vitro” value [5] of the same molecule?
Answer: observed in human plasma for the formulations containing 40 mol.% cholesterol, but not for the formulations with 45 mol.% or more of cholesterol

Question: And the “Concentration % (w/w) of free base (visually clear solution)” value ([6]; aqueous, 1 N HCl and/or water added)?
Answer: 7.3 % (w/w)

Question: And the “potency relative to tedizolid in NTM species and strains” value (M.avium; M.avium, M. chelonae, M. abscessus and M. kansasii)?
Answer: generally more potent than tedizolid

Question: What about the MIC (M.avium; [14]) of the same molecule?
Answer: 0.06 mg/L

Question: What about the MIC (M.avium; M. avium sbsp. avium strain 2285 S) of the same molecule?
Answer: 0.125 mg/L

Question: What about the MIC (M.avium; M. avium sbsp. avium strain 3993) of the same molecule?
Answer: 0.125 mg/L

Question: What about the MIC (MRSA 880 NR-49120) of the same molecule?
Answer: > 50 mg/L

Question: And the MIC (M. abscessus; M. abscessus sbsp. abscessus strain 21)?
Answer: 0.25 mg/L

Question: And the MIC (M. abscessus; M. abscessus sbsp. abscessus strain 1513)?
Answer: 32 mg/L

Question: What about the MIC (M. abscessus; M. abscessus sbsp. abscessus strain 1948) of the same molecule?
Answer: 0.125 mg/L

Question: What about the IC50 [7] of the same molecule?
Answer: 13.4 mg/L

Question: And the MIC (MRSA ATCC BAA-1556 [8]; read-out: MRSA MIC)?
Answer: > 50 mg/L

Question: What about the MIC (MRSA ATCC BAA-1556 [8]; [15]) of the same molecule?
Answer: > 50 mg/L

Question: And the MIC (M.tb H37Rv; Mycobacterium tuberculosis, H37RV, read-out: MIC (H37Rv))?
Answer: 0.015 mg/L

Question: And the MIC (M.tb H37Rv; Mycobacterium tuberculosis, H37RV, read-out: Mycobacterium tuberculosis MIC, H37Rv)?
Answer: 0.015 mg/L

Question: What about the MIC (M. massiliense; Mycobacteroides abscessus) of the same molecule?
Answer: 0.25 mg/L

Question: And the MIC (M. massiliense; Mycobacteroides abscessus, CIP108297)?
Answer: 1 mg/L

Question: And the IC50 [9]?
Answer: 0.411 mg/L

Question: Which MIC (MRSA ATCC 43300) does the source give for `Cn1nnc(-c2ccc(-c3ccc(N4C[C@H](CO)OC4=O)cc3F)cn2)n1` [Tedizolid, reference compound] here?
Answer: 0.617 mg/L (≈ 1.67 µM)

Question: What about the MIC (M. chelonae; M. chelonae strain 49, read-out: MIC) of the same molecule?
Answer: 0.25 mg/L (≈ 0.675 µM)

Question: What about the MIC (M. chelonae; M. chelonae strain 69, read-out: MIC) of the same molecule?
Answer: 2 mg/L (≈ 5.4 µM)

Question: What about the MIC (M. chelonae; M. chelonae strain 35752) of the same molecule?
Answer: 0.125 mg/L (≈ 0.338 µM)

Question: And the MIC (M. kansasii)?
Answer: 0.125 mg/L (≈ 0.338 µM)

Question: What about the MIC (M. kansasii; [13]) of the same molecule?
Answer: > 32 mg/L

Question: And the MIC (M. kansasii; M. kansasii strain 732, read-out: MIC)?
Answer: 0.25 mg/L (≈ 0.675 µM)

Question: And the MIC (M. kansasii; M. kansasii strain 824, read-out: MIC)?
Answer: 0.25 mg/L (≈ 0.675 µM)

Question: And the MIC (M. kansasii; M. kansasii strain MK13D6, read-out: MIC)?
Answer: 0.25 mg/L (≈ 0.675 µM)

Question: And the MIC (M.tb Erdman; [11])?
Answer: 0.25 mg/L (≈ 0.675 µM)

Question: What about the MIC (M.tb Erdman; Mycobacterium tuberculosis; M. tuberculosis Erdman / H37Rv, strains not separated; read-out: MIC) of the same molecule?
Answer: 0.25 mg/L (≈ 0.675 µM)

Question: What about the “solubility in water for gradient-assisted liposome loading” value [6] of the same molecule?
Answer: not soluble enough in water

Question: What about the MIC (M.avium; [14]) of the same molecule?
Answer: 0.25 mg/L (≈ 0.675 µM)

Question: What about the MIC (M.avium; M. avium sbsp. avium strain 2285 S, read-out: MIC) of the same molecule?
Answer: 0.25 mg/L (≈ 0.675 µM)

Question: What about the MIC (M.avium; M. avium sbsp. avium strain 3993, read-out: MIC) of the same molecule?
Answer: 0.25 mg/L (≈ 0.675 µM)

Question: What about the “MRSA MIC described in U.S. Pat. No. 7,816,379” value (MRSA ATCC BAA-1556 [10]) of the same molecule?
Answer: 0.5 mg/L

Question: What about the MIC (MRSA 880 NR-49120) of the same molecule?
Answer: 0.206 mg/L (≈ 0.556 µM)

Question: What about the MIC (M. abscessus; M. abscessus sbsp. abscessus strain 21, read-out: MIC) of the same molecule?
Answer: 0.5 mg/L (≈ 1.35 µM)

Question: And the MIC (M. abscessus; M. abscessus sbsp. abscessus strain 1513, read-out: MIC)?
Answer: 4 mg/L (≈ 10.8 µM)

Question: What about the MIC (M. abscessus; M. abscessus sbsp. abscessus strain 1948, read-out: MIC) of the same molecule?
Answer: 0.5 mg/L (≈ 1.35 µM)

Question: And the MIC (MRSA ATCC BAA-1556 [8]; read-out: MRSA MIC)?
Answer: 0.206 to 0.617 mg/L (≈ 0.556 to 1.67 µM)

Question: And the MIC (MRSA ATCC BAA-1556 [8]; [15])?
Answer: 0.617 mg/L (≈ 1.67 µM)

Question: What about the MIC (M.tb H37Rv; Mycobacterium tuberculosis, H37RV; as determined in Example 2; read-out: MIC (H37Rv)) of the same molecule?
Answer: 0.25 mg/L (≈ 0.675 µM)

Question: What about the MIC (M.tb H37Rv; [12]) of the same molecule?
Answer: 0.25 mg/L (≈ 0.675 µM)

Question: And the MIC (M. massiliense; M. massiliense strain M154)?
Answer: 0.06 mg/L (≈ 0.162 µM)

Question: What about the “activity relative to AKG-28 and AKG-38” value (M. massiliense; M. massiliense, three strains) of the same molecule?
Answer: more active in all three strains evaluated

Question: And the MIC (M. massiliense; Mycobacteroides abscessus, CIP108297, M. massiliense strain CIP 108297, read-out: MIC)?
Answer: 0.25 mg/L (≈ 0.675 µM)

Question: And the MIC (M. massiliense; Mycobacteroides abscessus, M. massiliense strain CRM0019, read-out: MIC)?
Answer: 0.06 mg/L (≈ 0.162 µM)

Question: And the IC50 [9]?
Answer: 0.143 mg/L (≈ 0.386 µM)
